Data from patent US11911364B2, “Positive allosteric modulators of GABAA receptor” (PEPTICOM LTD., priority 2018, dated 2024).

Target: T1, human GABA receptor (subunits α1β3γ2) (Homo sapiens, UniProt P14867+P18507+P28472)
T1 construct: expressed in transfected cells; host or cells: HEK293
Assay: Manual whole-cell patch-clamp recording of GABA receptor-mediated Cl- current in HEK293 cells
Assay type: cell-based
Settings: for mode of action at the human GABAA receptor: human GABAA receptor α1β3γ2, electrophysiological recordings; for effect on human GABA receptor-mediated Cl- current: human α1β3γ2 receptor expressed in HEK293 cells, manual whole-cell patch-clamp
Protocol: All the compounds of the present invention were tested and validated using electrophysiological recordings on the human GABAA receptor comprising of the following subunits α1β3γ2. The compounds of the present invention are used in the preparation of a neuroactive pharmaceutical composition, in improving sperm motility or in labeling of biomolecules.
The human GABA receptor (subunits α1β3γ2) was expressed in HEK293 cells in manual whole-cell patch-clamp settings.
These compounds of the present invention are experimentally shown to specifically bind to the GABAA receptor. Therefore, they are capable of activating, inhibiting or modulating the GABAA receptor. These compounds were derived in-silico and tested in-vitro in cell cultures. […] The human GABA receptor (subunits α1β3γ2) used in these experiments was expressed in the HEK293 cells in manual whole-cell patch-clamp settings.

T1 sequence (P14867 28-456): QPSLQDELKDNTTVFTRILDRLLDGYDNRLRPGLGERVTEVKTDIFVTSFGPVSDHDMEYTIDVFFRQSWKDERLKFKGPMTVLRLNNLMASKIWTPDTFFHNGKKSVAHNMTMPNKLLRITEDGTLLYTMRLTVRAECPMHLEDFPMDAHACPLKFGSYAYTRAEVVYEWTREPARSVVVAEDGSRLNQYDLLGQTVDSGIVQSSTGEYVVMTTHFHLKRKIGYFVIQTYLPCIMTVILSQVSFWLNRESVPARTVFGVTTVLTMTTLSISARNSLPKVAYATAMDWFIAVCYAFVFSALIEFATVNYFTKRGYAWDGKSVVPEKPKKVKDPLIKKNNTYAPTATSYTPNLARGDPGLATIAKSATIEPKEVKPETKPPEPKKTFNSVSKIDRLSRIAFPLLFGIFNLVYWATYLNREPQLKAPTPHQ
T1 sequence (P28472 26-473): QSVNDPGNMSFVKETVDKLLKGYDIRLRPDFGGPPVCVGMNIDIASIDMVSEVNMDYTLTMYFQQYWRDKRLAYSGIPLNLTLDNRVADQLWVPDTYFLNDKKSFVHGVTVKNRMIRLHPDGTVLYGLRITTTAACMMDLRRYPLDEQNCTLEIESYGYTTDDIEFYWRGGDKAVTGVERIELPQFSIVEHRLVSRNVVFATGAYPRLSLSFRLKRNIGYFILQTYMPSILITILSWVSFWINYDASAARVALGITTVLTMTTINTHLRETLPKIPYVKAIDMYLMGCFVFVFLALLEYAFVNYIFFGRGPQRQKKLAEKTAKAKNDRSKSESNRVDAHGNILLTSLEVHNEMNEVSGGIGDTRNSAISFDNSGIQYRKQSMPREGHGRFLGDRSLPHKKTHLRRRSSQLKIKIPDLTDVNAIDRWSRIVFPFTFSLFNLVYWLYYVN
T1 sequence (P18507 40-475): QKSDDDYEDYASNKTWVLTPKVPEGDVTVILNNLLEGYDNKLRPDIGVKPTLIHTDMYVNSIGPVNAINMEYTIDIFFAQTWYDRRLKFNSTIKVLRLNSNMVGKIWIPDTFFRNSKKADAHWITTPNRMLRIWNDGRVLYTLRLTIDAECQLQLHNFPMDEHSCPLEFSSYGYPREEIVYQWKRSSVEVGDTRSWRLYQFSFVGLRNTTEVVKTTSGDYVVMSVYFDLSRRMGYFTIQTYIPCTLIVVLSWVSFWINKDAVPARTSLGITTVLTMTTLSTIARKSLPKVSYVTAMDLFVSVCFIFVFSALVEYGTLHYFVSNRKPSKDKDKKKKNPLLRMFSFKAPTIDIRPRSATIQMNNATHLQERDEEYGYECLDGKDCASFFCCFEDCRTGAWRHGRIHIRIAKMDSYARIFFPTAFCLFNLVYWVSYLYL

CC(C)CC(NC(=O)c1ccc(S(N)(=O)=O)o1)c1cccs1 (stereo not shown) [Compound 1]
mode of action at the human GABAA receptor: positive allosteric modulation | effect on human GABA receptor-mediated Cl- current: selective potentiation

O=C(O)CC1(c2ccc(Br)cc2)CNC1 [Compound 2]
mode of action at the human GABAA receptor: inhibiting | effect on human GABA receptor-mediated Cl- current: selective potentiation
